We go through 21 molecules from US11485708B2, “Compounds for treatment of PD-L1 diseases” (CHEMOCENTRYX, INC., priority 2019, dated 2022).

The target in this assay is human PD-L1 / Human PD-1 (Homo sapiens (Human), UniProt Q9NZQ7). The experiment in a line: Enzyme-Linked Immunosorbent Assay (ELISA), PD-1/PD-L1 binding. The following applies: plates coated with human PD-L1, biotinylated human PD-1 added. As for the experimental part: 96 Well plates were coated with 1 μg/mL of human PD-L1 (obtained from R&D) in PBS overnight at 4′° C. The wells were then blocked with 2% BSA in PBS (W/V) with 0.05% TWEEN-20 for 1 hour at 37′° C. The plates were washed 3 times with PBS/0.05% TWEEN-20 and the compounds were serial diluted (1:5) in dilution medium and added to the ELISA plates. Human PD-1 and biotin 0.3 μg/mL (ACRO Biosystems) were added and incubated for 1 hour at 37° C. then washed 3 times with PBS/0.05% TWEEN-20. A second block was performed with 2% BSA in PBS (WNV)/0.05% TWEEN-20 for 10 min at 37° C. and the plates were washed 3 times with PBS/0.05% TWEEN-20. Streptavidin-HIRP was added for 1 hour at 37° C. then the plates were washed 3 times with PBS/0.05% TWEEN-20. TMB substrate was added and reacted for 20 min at 37° C. A stop solution (2 N aqueous H2SO4) was added. The absorbance was read at 450 nm using a micro-plate spectrophotometer.
Sequence of human PD-L1 / Human PD-1 (Q9NZQ7 19-239): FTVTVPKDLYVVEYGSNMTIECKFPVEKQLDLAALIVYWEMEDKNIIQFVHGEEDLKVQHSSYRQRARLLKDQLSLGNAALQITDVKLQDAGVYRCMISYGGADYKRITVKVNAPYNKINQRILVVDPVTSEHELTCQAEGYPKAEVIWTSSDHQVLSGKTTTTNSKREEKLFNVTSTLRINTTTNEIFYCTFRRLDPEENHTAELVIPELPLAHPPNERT
For orientation: An ELISA detects its analyte on a solid surface through an enzyme-linked reagent.

Regarding `COc1cc(-c2cccc(-c3cccc(-c4cc(F)c(CN(C)C)c(OC)c4)c3C)c2C)cc(F)c1CN(C)C` [Compd 1.059], the IC50 is < 1000 nM.

Consider `COc1cc(-c2cccc(-c3cccc(-c4cc(F)c(CNCCCO)c(OC)c4)c3C)c2C)cc(F)c1CNCCCO` [Compd 1.056], for which the IC50 is < 1000 nM.

As for `COc1cc(-c2cccc(-c3cccc(OCCCN4CCC(F)CC4)c3C)c2C)cc(F)c1CN(C)C` [Compd 1.078], the half-inhibitory concentration (IC50) was < 1000 nM.

With `Cc1c(OCCCN2CCC2(C)C)cccc1-c1cccc(-c2ccc3c(c2)CCNC3)c1Cl` [Compd 1.089, 6-(3′-(3-(2,2-dimethylazetidin-1-yl)propoxy)-2-chloro-2′-methyl-[1,1′-biphenyl]-3-yl)-1,2,3,4-tetrahydroisoquinoline], the IC50 is < 1000 nM.

Regarding `Cc1c(OCCCN2[C@H](C)CC[C@H]2C)cccc1-c1cccc(-c2ccc3c(c2)CCN(CC(=O)O)C3)c1C` [Compd 1.108], the IC50 is < 1000 nM.

Consider `COc1cc(-c2cccc(-c3cccc(-c4cc(F)c(CN)c(OC)c4)c3C)c2C)ccc1CN` [Compd 1.036], for which the IC50 is < 1000 nM.

`COc1cc(-c2cccc(-c3cccc(OCCCN4CCC(F)CC4)c3C)c2C)cc(OC)c1CN(C)C` [Compd 1.079] showed an IC50 of 1000 to 10000 nM.

As to `Cc1c(OCCCN2[C@H](C)CC[C@H]2C)cccc1-c1cccc(-c2ccc3c(c2)CNC3)c1C` [Compd 1.120], the IC50 is < 1000 nM.

Regarding `COc1cc(-c2cccc(-c3cccc(OC4CCCNC4)c3C)c2C)cc(F)c1CN` (stereo not drawn) [Compd 1.014], the IC50 was 1000 to 10000 nM.

In turn, `Cc1c(OCCCN2CCC2(C)C)cccc1-c1cccc(-c2ccc3c(c2)CCNC3)c1` [Compd 1.103, 6-(3′-(3-(2,2-dimethylazetidin-1-yl)propoxy)-2′-methyl-[1,1′-biphenyl]-3-yl)-1,2,3,4-tetrahydroisoquinoline] yielded an IC50 of 1000 to 10000 nM.

For the molecule `Cc1c(OCCCN2[C@H](C)CC[C@H]2C)cccc1-c1cccc(-c2ccc3c(c2)CCNC3)c1C` [Compd 1.114], the IC50 was < 1000 nM.

As for `Cc1c(OCCCN2CCC2(C)C)cccc1-c1cccc(-c2ccc3c(c2)CCNC3)c1F` [Compd 1.090, 6-(3′-(3-(2,2-dimethylazetidin-1-yl)propoxy)-2-fluoro-2′-methyl-[1,1′-biphenyl]-3-yl)-1,2,3,4-tetrahydroisoquinoline], the IC50 was < 1000 nM.

With `Cc1c(-c2ccc3c(c2)CCNC3)cccc1-c1ccc2c(c1)OCCO2` [Compd 1.126], the IC50 is < 1000 nM.

Turning to `Cc1c(OCCCN2CCC(F)CC2)cccc1-c1cccc(-c2ccc3c(c2)CCNC3)c1C` [Compd 1.110], the IC50 is < 1000 nM.

As for `COc1cc(-c2cccc(-c3cccc(-c4cc(F)c(CN5CCC(O)CC5)c(OC)c4)c3C)c2C)cc(F)c1CN1CCC(O)CC1` [Compd 1.043, 1,1′-((3,3′″-difluoro-5,5′″-dimethoxy-2′,2″-dimethyl-[1,1′:3′,1″:3″,1′″-quaterphenyl]-4,4′″-diyl)bis(methylene))bis(piperidin-4-ol)], the IC50 is < 1000 nM.

On to `Cc1c(OCCCN2[C@H](C)CC[C@H]2C)cccc1-c1cccc(-c2ccc(CCN)cc2)c1C` [Compd 1.118], for which the IC50 was < 1000 nM.

As to `COc1cc(-c2cccc(-c3cccc(-c4ccc(CN)c(F)c4)c3C)c2C)cc(F)c1CN` [Compd 1.037], the IC50 was < 1000 nM.

`COc1ccc(-c2cccc(-c3cc(F)c(CN)c(OC)c3)c2C)cc1F` [Compd 1.025] showed an IC50 of 1000 to 10000 nM.

In the case of `Cc1c(OCCCN2CC3(CC(O)C3)C2)cccc1-c1cccc(-c2ccc3c(c2)CCNC3)c1C` [Compd 1.109], the IC50 was < 1000 nM.

In the case of `COc1cc(-c2cccc(-c3cccc(-c4cc(F)c(CCN)c(OC)c4)c3C)c2C)cc(F)c1CCN` [Compd 1.045], the IC50 is < 1000 nM.

Turning to `COC(=O)CCCN(C)Cc1c(F)cc(-c2cccc(-c3cccc(-c4cc(F)c(CN(C)CCCC(=O)OC)c(OC)c4)c3C)c2C)cc1OC` [Compd 1.057], the IC50 was < 1000 nM.

What is called IC50 is the concentration at which inhibition is half-maximal. A high value points to weaker potency in that assay.
